Results: patent US20240165089A1, “METHOD FOR TREATING MYOPIA WITH VINPOCETINE” (EYE HOSPITAL, WENZHOU MEDICAL UNIVERSITY, priority 2021, published 2024)
In brackets after ≈: the same amount, converted by molar mass. Where two headings read alike, the source gives them in different places.

Key:
[1] = test system: choroid of LIM guinea pigs; experiment: choroidal thickness and blood flow by OCTA, LIM group; format: in vivo, guinea pig; details: 1 week, vs solvent injection group
Description: The choroidal blood flow parameters and choroidal thickness were measured for the animals in the above FDM group after 1 week of continuous administration and at the end of the 2 week-administration experiment and for the animals in the LIM group at the end of the 7 day-administration experiment. Choroidal blood flow parameters and thickness were measured using a modified commercial OCTA (Spectralis HRA+OCT, OCTA, Heidelberg, Germany) which is more suitable for animal eyeballs. Before the measurement, the guinea pigs were fully anesthetized (a mixture of ketamine hydrochloride 60 mg/kg and xylazine hydrochloride 9 mg/kg, intraperitoneally injected), and then the guinea pig OCTA images were obtained, and the measurement results were quantified through a self-written program (MatLab R2017a, MathWorks). Real-time quantitative detection of choroidal blood flow and thickness in guinea pigs was achieved (Sen Zhang, Invest Ophthalmol Vis Sci. 2019 Jul. 1; 60(8):3074-3083).
Vinpocetine is known to improve blood circulation. The inventors used the method of example 1 to detect changes of indicator signals of choroidal thickness ChT and choroidal blood flow ChBP of FDM (1 week and 2 weeks of administration) and LIM (1 week of administration) at different time points during the administration cycle.

[2] = test system: guinea pigs; experiment: safety observation during local administration to young guinea pigs; format: in vivo, guinea pig
Excerpt: (§1) three-week-old tricolor guinea pigs (both male and female, simulating humans aged 3-26 years old) were used and raised in the experimental animal room of Wenzhou Medical University in a 12-hour light (400-500 lux)/12-hour dark environment with free access to water and food. The myopia model adopted monocular form deprivation (FD) and lens induction (LI) modeling methods. […] In the lens induction group, a −4D lens was fixed in front of the right eye of the animal, and the left eye obtained normal vision. For the above animals, the lenses were cleaned twice a day to prevent the lenses from blurring. The animals in the experimental group were administrated at 9:00-9:30 am every day. […] The administration process for each animal was controlled in about 10 seconds. Administration began on the day of modeling, and was continuous for 2 weeks for the form deprivation group and was continuous for 1 week for the lens induction group. This experiment has been reviewed by the Experimental Animal Ethics Committee of Wenzhou Medical University.

[3] = cited from earlier work
[4] = test system: rats; details: rat, in vivo, cited from earlier work
[5] = test system: form deprivation myopia (FDM) guinea pig model; experiment: form deprivation myopia (FDM) guinea pig model, injection around the eyeball; format: in vivo
Excerpt: (§2) The form deprivation and lens-induced guinea pig myopia model is a classic and recognized myopia animal model in the field. The model can be used to evaluate the efficacy and safety of drugs for treating myopia. The construction method of the model is well known to those skilled in the art. The animal modeling and administration route in this application refer to the scientific literature previously published by this research group (Sen Zhang, Invest Ophthalmol Vis Sci. 2019 Jul. 1; 60(8):3074-3083.; Miaozhen Pan, Exp Eye Res. 2021 January; 202:108332.), specifically, this application uses the following exemplary construction method of the form deprivation and lens-induced guinea pig myopia model:
as §1
(§3) The inventors prepared a 5 μM (i.e., 1.75 μg/mL) vinpocetine stock solution and stored at −80° C. The solvent was physiological saline. Before administration experiment, the stock solution was diluted with physiological saline to 1 μM, 0.1 μM, and 0.01 μM, respectively. During the formulation process of vinpocetine eye drops, the solubility can be increased by using conventional physical methods such as heating and stirring, or acids can also be used to adjust the PH value to increase solubility, and finally, the PH value can be adjusted to 7.31.
2. Form deprivation plus drug injection group: • wearing an eye mask on one eye and injecting vinpocetine (0.01 μM: 0.1 mL/day) into the eye wearing the eye mask for 2 weeks, sample size=15; • wearing an eye mask on one eye and injecting vinpocetine (0.1 μM: 0.1 mL/day) into the eye wearing the eye mask for 2 weeks, sample size=20; • wearing an eye mask on one eye and injecting vinpocetine 1.00 μM: 0.1 mL/day) into the eye wearing the eye mask for 2 weeks, sample size=22; • 3.
(§4) All animals in the same model efficacy experiment were measured within the same time period, and the first measurement was at 3 weeks of age, that is, before drug administration. Refractions and eyeball parameters were measured for the animals in the above FDM group before the experiment, after 1 week of administration in the experiment and after 2 weeks of administration in the experiment and for the animals in the LIM group before the experiment, after 3 days of administration in the experiment and after 7 days of administration in the experiment, respectively. The refractions were measured using an eccentric infrared photoretinoscope (EIR) built in our laboratory. Each eye was measured three times and the average was taken as the final result. The axial parameters of the guinea pig's eyeballs were measured using the A-ultrasound probe in the CinescanA/B ultrasonic diagnostic instrument (QuantelMedical, Aviso, France). The ultrasonic frequency was 11 MHz. The ultrasonic propagation speeds of different refractive media of the eyeball were set as: 1557.5 m/s for the anterior chamber, 1723.3 m/s for the lens, and 1540 m/s for the vitreous body.

[6] = test system: lens induction myopia (LIM, −4D lens) guinea pig model; experiment: lens induction myopia (LIM) guinea pig model, injection around the eyeball; format: in vivo
Excerpt: as §2, §1, §3
2. Lens induction plus drug injection group: • wearing a −4D lens on one eye and injecting vinpocetine (0.01 μM: 0.1 mL/day) into the eye wearing the −4D lens for 1 weeks, sample size=12; • wearing a −4D lens on one eye and injecting vinpocetine (0.1 μM: 0.1 mL/day) into the eye wearing the −4D lens for 1 weeks, sample size=12; • wearing a −4D lens on one eye and injecting vinpocetine (1.00 μM 0.1 mL/day) into the eye wearing the −4D lens for 1 weeks, sample size=13; • 3.
as §4

[7] = vinpocetine 1 μM, 1 week, vs vehicle

CCOC(=O)C1=C[C@]2(CC)CCCN3CCc4c(n1c1ccccc41)[C@@H]32 [vinpocetine]
choroidal thickness ChT ([1]; not statistically significant): only slightly increased | choroidal blood perfusion ChBP ([1]; p=0.766): only slightly increased | common clinical adverse reactions or toxic manifestations such as weight loss ([2]; guinea pig, in vivo): no individual was observed to have common clinical adverse reactions or toxic manifestations | allergic phenomenon ([2]; local administration of vinpocetine): no allergic phenomenon | changes in the pupil size of the test eyes ([2]; local administration of vinpocetine to young guinea pigs): No significant changes | ocular abnormalities ([2]; vinpocetine group, local administration): No ocular abnormalities | solubility in water [3]: almost insoluble in water | solubility in 0.5% methylcellulose ([3]; room temperature): 200 mg/mL (≈ 571 mM) | solubility in water ([3]; room temperature): 0.0024 mg/mL (≈ 0.00685 mM) | toxicity findings ([4]; 20 mg/kg/day): no obvious abnormality | toxicity findings ([4]; 40 mg/kg): signs of weight loss and food intake reduction | LD50 ([4]; po): approximately 500 mg/kg | refraction change towards negative and vitreous chamber depth elongation compared with the negative control group ([5]; low-concentration vinpocetine 0.01 μM, two time points, no statistical difference): showed an inhibitory trend | refraction difference between the experimental eye and the contralateral eye ([5]; vinpocetine 1 μM 0.1 mL/day peribulbar injection, 1 week): −2.44±1.88 D | axial length difference between the experimental eye and the contralateral eye ([5]; vinpocetine 1 μM, 1 week): 0.07±0.05 mm | vitreous chamber depth difference between the experimental eye and the contralateral eye ([5]; vinpocetine 1 μM, 1 week): 0.06±0.05 mm | inhibition rate for the axial length [5, 7]: 39.8% | inhibition rate for the vitreous chamber depth [5, 7]: 45.0% | refraction inhibition rate [5, 7]: 50.5% | axial length difference between the experimental eye and the contralateral eye ([5]; vinpocetine 1 μM, 2 weeks): 0.08±0.05 mm | inhibition rate for the axial length ([5]; vinpocetine 1 μM, 2 weeks): 48.2% | inhibition rate for the vitreous chamber depth ([5]; vinpocetine 1 μM, 2 weeks): 43.4% | refraction difference between the experimental eye and the contralateral eye ([5]; vinpocetine 1 μM, 2 weeks): −3.36±2.21 D | refraction inhibition rate ([5]; vinpocetine 1 μM, 2 weeks): 50.1% | vitreous chamber depth difference between the experimental eye and the contralateral eye ([5]; vinpocetine 1 μM, 2 weeks): 0.09±0.05 mm | effect of myopia treatment compared with the negative control group ([6]; high-, medium- and low-concentration vinpocetine (1, 0.1, 0.01 μM), 3 days): showed the effect of myopia treatment | refraction difference between the experimental eye and the contralateral eye ([6]; vinpocetine 1 μM 0.1 mL/day peribulbar injection, 3 days): −2.00±0.82 D | axial length difference between the experimental eye and the contralateral eye ([6]; vinpocetine 1 μM, 3 days): 0.04±0.02 mm | inhibition rate for the axial length ([6]; vinpocetine 1 μM, 3 days): 55.5% | inhibition rate for the vitreous chamber depth ([6]; vinpocetine 1 μM, 3 days): 58.8% | refraction inhibition rate ([6]; vinpocetine 1 μM, 3 days): 38.5% | vitreous chamber depth difference between the experimental eye and the contralateral eye ([6]; vinpocetine 1 μM, 3 days): 0.03±0.03 mm | axial length difference between the experimental eye and the contralateral eye ([6]; vinpocetine 1 μM, 7 days): 0.05±0.02 mm | inhibition rate for the axial length ([6]; vinpocetine 1 μM, 7 days): 53.8% | inhibition rate for the vitreous chamber depth ([6]; vinpocetine 1 μM, 7 days): 49.8% | refraction difference between the experimental eye and the contralateral eye ([6]; vinpocetine 1 μM, 7 days): −2.61±1.17 D | refraction inhibition rate ([6]; vinpocetine 1 μM, 7 days): 36.3% | vitreous chamber depth difference between the experimental eye and the contralateral eye ([6]; vinpocetine 1 μM, 7 days): 0.05±0.02 mm
